Read-outs that look alike come from different tables or passages of the source.
Assays:
SW620 cells = assay: FACS analysis of cell cycle distribution by DNA content (propidium iodide), SW620; type: cell-based; conditions: 24 hours in FBS− media, AZ191 2.5, 5, 10 μM, Compound I-7 1.25, 2.5, 5 μM
Method: (§1) The SW620 cells were cultured and treated as described in Example 1. For propidium iodide (PI) staining, manufacturer's protocol supplied with the Guava Cell Cycle Reagent for Flow Cytometry (EMD Millipore) was followed. The measurements were performed with Guava PCA-96 flow cytometer (EMD Millipore) using the green laser for excitation at 535 nm and monitoring emission at 617 nm.
as §1, with “cultured, treated,” for “cultured”, “analyzed” for “treated”, “Examples” for “Example”

DYRK1B [1] = conditions: literature value; read-out: inhibits DYRK1B at; cited from earlier work
quiescent cancer cells = conditions: in vitro, literature; cited from earlier work
PANC1 cells = assay: Cell viability assay in 2D cell culture (CellTiter-Glo), PANC1; type: cell-based; conditions: Homo sapiens, PANC-1, 96 h
A549 cells = assay: Cell viability assay in 2D cell culture (CellTiter-Glo), A549; type: cell-based; conditions: Homo sapiens, A549, 96 h
Description: (§2) The following cell lines were obtained from ATCC and cultured according to the ATCC recommendations: H1975—non-small cell lung cancer cell line harboring L858R and T790M mutations; HCC827—non-small cell lung cancer cell line with E746-A750 deletion in EGFR TK; PC9—non-small cell lung cancer cell line with E746-A750 deletion in EGFR TK; A549—non-small cell lung cancer cell line with wild type EGFR; PANC1—pancreatic cancer cell line; MiaPaCa-2—pancreatic cancer cell line, and SW620—colon cancer cell line. Cell cultures of these lines were seeded into 6-well plates at 3×10^5−6×10^5 cells/well; the plated number of cells depended on cell size and rate of proliferation, aiming for approximately 50% confluency. After seeding, the cells were allowed to attach for 24 hours while incubated at 37° C. in a humidified 5% CO2 atmosphere, and then treated with compounds for desired amount of time (usually 24 hours) incubating under same conditions. Then the cells were harvested by trypsinization, pooled with the floating cells, washed in PBS, and fixed in 70% ice-cold ethanol overnight. For Acridine Orange (AO) staining, fixed cells were washed once with ice-cold PBS, re-suspended in 100 μL PBS, followed by addition of 200 μL of permeabilizing solution and 600 μL AO staining solution.
(§3) For viability analysis, cells were seeded into 96-well plates at 2×10^3-6×10^3 cells/well; depending on cell size and rate of proliferation aiming for approximately 50% confluency. Cells were allowed to attach for 24 hours incubated at 37° C. in a humidified 5% CO2 atmosphere. The treatments were performed using at least 6 different concentrations of a compound in 1:3 serial dilutions. Before reading the results cells were incubated for 96 hours in 5% CO2 incubator at 37° C. Each treatment was performed in triplicate. Results were analyzed by CellTiter-Glo™ Luminescent Cell Viability Assay (Promega, cat. # G7571) according to the manufacturer's instructions using SpectraMAX Gemini Spectrophotometer (Molecular Devices).

H1975 cells [2] = assay: Cell viability assay in 2D cell culture (CellTiter-Glo), H1975; type: cell-based; conditions: Homo sapiens, NCI-H1975, 96 h
PC9 cells = assay: Cell viability assay in 2D cell culture (CellTiter-Glo), PC9; type: cell-based; conditions: Homo sapiens, PC-9, 96 h
Description: as §2, §3

[3] = tested on: phosphorylated Y1068-EGFR; assay: Western blot, EGFR phosphorylation in H1975 cells; type: cell-based; conditions: 24 hours treatment
Method: (§4) For Western Blot analysis cells were seeded into 6-well plates at 5×10^5-9×10^5 cells/well (depending on the cell size and rate of proliferation), allowed to attach for 24 hours, then treated with compounds for 24 hours, and harvested. Immunoblotting was performed using conventional techniques, as described in Cell Signaling Technologies Western Blotting protocol (www.cellsignal.com).

DYRK1B [4] = assay: Western blot, DYRK1B expression in H1975 cells; type: cell-based; conditions: 24 hours treatment, compared to untreated cells in FBS+ or FBS− medium
Method: as §4

[5] = tested on: PC9 human non-small cell lung cancer cells; conditions: exposure of PC9 cells, literature; cited from earlier work
MiaPaCa-2 cells = assay: Cell viability assay in 2D cell culture (CellTiter-Glo), MiaPaCa-2; type: cell-based; conditions: Homo sapiens, MIA PaCa-2, 96 h
Description: as §2, §3

H1975 spheroids = assay: Cell viability assay in 3D cell culture (spheroids), H1975; type: cell-based; conditions: Homo sapiens, NCI-H1975, 168 h, seven days
Method: Each treatment was performed in triplicate.
Cells were incubated for 2-3 days (depending on the cell line) at 37° C. in a humidified 5% CO2 atmosphere allowing for tight spheroid formation. For the treatment, 50 μL of media was removed from each well and replaced with fresh media with compounds. […] Before reading the results, cells were incubated for the period of 4-10 days in 5% CO2 incubator at 37° C. If the treatment time exceeded 4 days, […] in each well was replaced with fresh media containing the test compound every fourth day. Each treatment was performed in duplicate. […] Prior to analysis, the spheroids were photographed at 50× magnification.

H1975 cells [6] = assay: FACS analysis of cell cycle distribution (Acridine Orange), H1975; type: cell-based; conditions: 24 hours
[7] = EGFR inhibitor alone (Compound I-5 / I-7 not present)
[8] = EGFR inhibitor alone (Compound I-7 not present)
[9] = Compound I-7 present at 2 μM, read-out: EC50
[10] = Compound I-7 present at 4 μM, read-out: EC50
[11] = EGFR inhibitor alone (Compound I-5 / I-7 not present), read-out: EC50
[12] = 18 nM osimertinib with 5 μM Compound I-7, FBS+ or pre-starved

Structure (SMILES): COc1cc(N2CCN(C)CC2)ccc1Nc1nccc(-c2cn(C)c3cnccc23)n1 [AZ191]
- fraction of cells in quiescent state (G0), based on fraction of cells G0+G1 phase (SW620 cells): no decrease in fraction of cells in quiescent state (G0)
- IC50 (DYRK1B [1]): 17 nM

Structure (SMILES): CCOC(=N)c1nc2ccc3ncnc(Nc4cc(F)c(F)cc4Cl)c3c2s1 [Compound I-7]
- fraction of cells in quiescent state (G0), based on fraction of cells G0+G1 phase (SW620 cells): significant decrease in fraction of cells in quiescent state (G0)

Structure (SMILES): COc1ncc2cc(C(=O)Nc3cc(C(=O)NCc4cccc(Cl)c4)ccc3Cl)c(=O)[nH]c2n1 [TC-S 7004]
- effectiveness against quiescent cancer cells (quiescent cancer cells): effective against quiescent cancer cells in vitro

Structure (SMILES): CN(C)C/C=C/C(=O)Nc1cc2c(Nc3ccc(F)c(Cl)c3)ncnc2cc1O[C@H]1CCOC1 [afatinib]
- EC50 (PANC1 cells; Compound I-7 present at 2 μM): 1800 nM
- EC50 (PANC1 cells; Compound I-7 present at 4 μM): 1500 nM
- EC50 (PANC1 cells; [7]): 1900 nM
- EC50 (A549 cells; Compound I-7 present at 3 μM): 2600 nM
- EC50 (A549 cells; Compound I-7 present at 6 μM): 1000 nM
- EC50 (A549 cells; [8]): 4700 nM
- EC50 (H1975 cells [2]; Compound I-7 present at 2 μM): 25.2 nM
- EC50 (H1975 cells [2]; Compound I-7 present at 4 μM): 8.2 nM
- EC50 (H1975 cells [2]; [8]): 89.4 nM
- EC50 (PC9 cells; Compound I-7 present at 3 μM): 1.3 nM
- EC50 (PC9 cells; Compound I-7 present at 6 μM): 0.4 nM
- EC50 (PC9 cells; [7]): 2.1 nM

Structure (SMILES): COc1cc2ncnc(Nc3ccc(F)c(Cl)c3)c2cc1NC(=O)/C=C/CN1CCCCC1 [dacomitinib]
- EC50 (PANC1 cells; [9]): 9900 nM
- EC50 (PANC1 cells; [10]): 7100 nM
- EC50 (PANC1 cells; [11]): 11400 nM
- EC50 (H1975 cells [2]; Compound I-7 present at 2 μM): 88.6 nM
- EC50 (H1975 cells [2]; Compound I-7 present at 4 μM): 34.8 nM
- EC50 (H1975 cells [2]; [8]): 110 nM
- EGFR phosphorylation (ph-Y1068 EGFR) [3]: suppressed the EGFR phosphorylation
- expression of DYRK1B protein (DYRK1B [4]): induced expression of DYRK1B protein similar to or higher than that produced by serum starvation

Structure (SMILES): C#Cc1cccc(Nc2ncnc3cc(OCCOC)c(OCCOC)cc23)c1 [erlotinib]
- EC50 (PANC1 cells; Compound I-5 present at 2.5 μM, read-out: EC50): > 30000 nM
- EC50 (PANC1 cells; Compound I-5 present at 5 μM, read-out: EC50): 14000 nM
- EC50 (PANC1 cells; [11]): > 30000 nM
- EC50 (A549 cells; Compound I-7 present at 3 μM, read-out: EC50): 5900 nM
- EC50 (A549 cells; Compound I-7 present at 6 μM, read-out: EC50): 400 nM
- EC50 (A549 cells; EGFR inhibitor alone (Compound I-7 not present), read-out: EC50): 10400 nM
- fraction of cells in G0 (pharmacological quiescence) [5]: significant increase of fraction of cells in G0
- EC50 (PC9 cells; Compound I-5 present at 2 μM): 9.3 nM
- EC50 (PC9 cells; Compound I-5 present at 4 μM): 3.7 nM
- EC50 (PC9 cells; [7]): 17.3 nM
- EC50 (MiaPaCa-2 cells; Compound I-5 present at 2.5 μM): 6400 nM
- EC50 (MiaPaCa-2 cells; Compound I-5 present at 5 μM): 3500 nM
- EC50 (MiaPaCa-2 cells; erlotinib alone (Compound I-5 not present)): > 30000 nM

Structure (SMILES): CS(=O)(=O)CCNCc1ccc(-c2ccc3ncnc(Nc4ccc(OCc5cccc(F)c5)c(Cl)c4)c3c2)o1 [lapatinib]
- fraction of cells in G0 (pharmacological quiescence) [5]: significant increase of fraction of cells in G0

Structure (SMILES): C=CC(=O)Nc1cc(Nc2nccc(-c3cn(C)c4ccccc34)n2)c(OC)cc1N(C)CCN(C)C [osimertinib]
- EC50 (H1975 spheroids; regular growth media (FBS+), Compound I-7 not present): 0.68 nM
- EC50 (H1975 spheroids; regular growth media (FBS+), Compound I-7 present at 2.5 μM): 0.28 nM
- EC50 (H1975 spheroids; serum starvation (FBS−), Compound I-7 not present): 3.3 nM
- EC50 (H1975 spheroids; serum starvation (FBS−), Compound I-7 present at 2.5 μM): 1 nM
- EC50 (PANC1 cells; [9]): 4600 nM
- EC50 (PANC1 cells; [10]): 4500 nM
- EC50 (PANC1 cells; [11]): 5300 nM
- EC50 (H1975 cells [2]; Compound I-7 present at 2 μM): 7.9 nM
- EC50 (H1975 cells [2]; Compound I-7 present at 4 μM): 4.2 nM
- EC50 (H1975 cells [2]; [8]): 8.7 nM
- EGFR phosphorylation (ph-Y1068 EGFR) [3]: suppressed the EGFR phosphorylation
- fraction of cells in quiescent (G0) state (H1975 cells [6]; 18 nM osimertinib alone, pre-incubated in FBS+ or pre-starved in FBS− medium): even more effective than serum starvation (FBS−) at inducing a large fraction of the cells into the quiescent (G0) state
- apoptotic cells (sub-G0 population) (H1975 cells [6]; [12]): significant increases in apoptotic cells
- fraction of cells in G0 (H1975 cells [6]; [12]): reduced the fraction of cells in G0
- expression of DYRK1B protein (DYRK1B [4]): induced expression of DYRK1B protein similar to or higher than that produced by serum starvation

Structure (SMILES): C=CC(=O)Nc1cccc(Nc2nc(Nc3ccc(N4CCN(C(C)=O)CC4)cc3OC)ncc2C(F)(F)F)c1 [rociletinib]
- EC50 (PANC1 cells; [9]): 9900 nM
- EC50 (PANC1 cells; [10]): 7100 nM
- EC50 (PANC1 cells; [11]): 11400 nM
- EC50 (H1975 cells [2]; Compound I-7 present at 2 μM): 22.5 nM
- EC50 (H1975 cells [2]; Compound I-7 present at 4 μM): 14.9 nM
- EC50 (H1975 cells [2]; [8]): 351 nM
